Data taken from patent publication US12582639B2, “Preventive, relief or therapeutic use of 2,3,5-substituted thiophene compound against gastrointestinal stromal tumor” (PHAROS IBIO CO., LTD, priority 2020, dated 2026).

What was measured:
[1] = tested on: GIST-T1 cell line; assay: Growth inhibition of gastrointestinal stromal tumor cell line GIST-T1 (Celltiter glo); format: cell-based; settings: Homo sapiens, GISTT1; for GI50: GIST-T1, 72 hours
Protocol: Specifically, 100 μl of the GIST-T1 cell line was added to each well of a 96-well plate at a concentration of 5,000 cells/100 μl. After 24 hours of stabilization, 100 μl of the GIST-T1 cell line was treated with 0.5 μl of each of control compounds and PHI-101 (⅓ serial dilution, 10 points) to a final concentration of up to 50 μM, and cultured at 37° C. under 5% CO2 for 72 hours. As the control compounds, imatinib, dasatinib, sunitinib and ponatinib, which are c-kit inhibitors, were used. After culture, the cells were counted using a Celltiter glo assay kit (Promega), and the 50% growth inhibition values (GI50, μM) of the control compounds and PHI-101 were measured.

[2] = tested on: c-kit D816V Ba/F3 cell line; assay: Growth inhibition of c-kit D816V mutant Ba/F3 cell line (Celltiter glo); format: cell-based; settings: for GI50: Mus musculus, BaF3, cKIT D816V Ba/F3, 72 hours
Protocol: Specifically, 100 μl of a Ba/F3 cell line with a c-kit D816V mutation (FIG. 1) was added to each well of a 96-well plate at a concentration of 10,000 cells/100 μl. After 4 hours, 100 μl of the Ba/F3 cell line was treated with 0.5 μl of each of control compounds and PHI-101 (10-point 1:3 serial dilutions) to a final concentration of up to 50 μM, and cultured at 37° C. under 5% CO2 for 72 hours. As the control compounds, imatinib and sunitinib which are c-kit inhibitors were used. After culture, the cells were counted using a Celltiter glo assay kit (Promega), and the 50% growth inhibition values (GI50, μM) of the control compounds and PHI-101 were measured.

[3] = tested on: Parental Ba/F3 cell line; assay: Growth inhibition of parental Ba/F3 cell line (Celltiter glo); format: cell-based; settings: Mus musculus, BaF3; Parental Ba/F3, 72 hours
[4] = tested on: c-kit phosphorylation and downstream signaling (p-STAT3, p-ERK1/2) in c-kit D816V mutant Ba/F3 cell line; assay: Inhibition of c-kit phosphorylation and downstream signaling in c-kit D816V Ba/F3 cells (Western blot); format: cell-based; settings: 0.1, 1 and 10 μM, 2 hours; controls sunitinib and dasatinib
Protocol: The inhibitory activities of the control compound and PHI-101 against c-kit phosphorylation and downstream signaling (p-STAT3, p-ERK1/2) in the c-kit D816V mutant Ba/F3 cell line were measured, and as control compounds, sunitinib and dasatinib were used.
(§1) Specifically, the c-kit D816V mutant Ba/F3 cell line was dispensed at a density of 1×10^6 cells/ml, treated with each of the control compounds and PHI-101 at concentrations of 0.1, 1 and 10 μM, and then cultured for 2 hours. Lysates of the cells were obtained using lysis buffer (50 mM Tris-HCl pH7.5, 1% NP40, 1 mM EDTA, 150 mM NaCl, 5 mM, Na3VO4 and 2.5 mM NaF, and a protease inhibitor cocktail). Equal amounts of the cell lysates were electrophoresed using 8% SDS-PAGE gel at 100 V for 1 hour and 30 minutes, and the separated protein was electrically transferred to nitrocellulose membranes. The membranes were blocked with 5% skim milk at room temperature for 30 minutes, and allowed to react with primary antibodies (diluted 1:5,000), including p-c-kit tyrosine 719 (Y719), p-STAT3 tyrosine 705 (Y705) and p-ERK1/2 threonine 202/tyrosine 204 (T202/Y204) at 4° C. for 16 to 20 hours. […] Next, the membranes were washed three times with TBST for 5 minutes each time and treated with a chemiluminescent substrate reagent, and the expression level of the protein was measured by detecting luminescence with an X-ray film in the dark.

[5] = tested on: c-kit D816V mutant Ba/F3 cell line; assay: Apoptotic effect, Annexin V-PI FACS analysis; format: cell-based; settings: 24 hours
Protocol: Specifically, the c-kit D816V mutant Ba/F3 cell line was adjusted to a concentration of 1×10^6 cells/ml and treated with each of PHI-101 at concentrations of 0.1, 1 and 10 μM and the control compound sunitinib at concentrations of 1 and 10 μM for 24 hours. Thereafter, the medium was removed and the cells were washed once with 1 ml PBS. The PBS was removed by centrifugation at 1,000 rpm for 5 minutes. The cells were dissolved in 100 μl of PBS containing Ca^2+ and Mg^2+ and allowed to react with 5 μl of Annexin V for 20 minutes. After completion of the reaction, 400 μl of PBS containing Ca^2+ and Mg^2+ was added, and 5 μl of propidium iodide (PI) was added, and then the degree of apoptotic cell death was analyzed by FACS (fluorescence activated cell sorter) assay using a flow cytometer (FACS-C6, BD).

[6] = tested on: c-kit D816V mutant Ba/F3 cell line; assay: Cell cycle FACS assay; format: cell-based; settings: 1 μM, 24 hours
Protocol: The c-kit D816V mutant Ba/F3 cell line was treated with 1 μM of PHI-101, and then the SubG1/GO-1 population was analyzed by cell cycle FACS assay.
Specifically, the c-kit D816V mutant Ba/F3 cell line was adjusted to a concentration of 1×10^6 cells/ml and treated with each of PHI-101 and the control compound sunitinib at a concentration of 1 μM for 24 hours. Thereafter, the medium was removed, and the c-kit D816V mutant Ba/F3 cell line was fixed in 70% ethanol at 4° C. for 24 hours, and then incubated in a PBS buffer solution containing 40 μg/ml of propidium iodide (PI) and 100 μg/ml of RNase for 30 minutes to completely stain the total DNA. Cell cycle analysis of the stained cells was performed using a flow cytometer (FACS-C6, BD). The proportion of cells in G0/G1 phase, S phase and G2/M phase was measured, and based on the measurement results, the SubG1/GO-1 population was determined.

[7] = tested on: c-kit phosphorylation and downstream signaling (p-AKT, p-ERK1/2, p-S6) in GIST-T1 cell line; assay: Inhibition of c-kit phosphorylation and downstream signaling in GIST-T1 cells (Western blot); format: cell-based, human; settings: 0.01, 0.1 and 1 μM
[8] = tested on: GIST-T1 cell line; assay: Apoptotic effect, cleaved PARP Western blot in GIST-T1; format: cell-based, human; settings: 0.01, 0.1 and 1 μM, 24 hours
Protocol: as §1, with “membranes.” for “membranes. The membranes were blocked with 5% skim milk at room temperature for 30 minutes, and allowed to react with primary antibodies (diluted 1:5,000), including p-c-kit tyrosine 719 (Y719), p-STAT3 tyrosine 705 (Y705) and p-ERK1/2 threonine 202/tyrosine 204 (T202/Y204) at 4° C. for 16 to 20 hours.”
A gastrointestinal stromal tumor cell line was treated with PHI-101, and the level of cleaved PARP, an apoptosis marker, was analyzed. […]
Specifically, the apoptotic effect of PHI-101 against the GIST-T1 cell line was analyzed in the same manner as in Example 1-2, except that the GIST-T1 cell line was treated with each of the control compounds at a concentration of 1 μM and PHI-101 at concentrations of 0.01, 0.1 and 1 μM for 24 hours, and that cleaved PARP diluted at 1:3,000 was used as a primary antibody.

[9] = tested on: c-kit D816V Ba/F3 cell line xenograft mouse model; assay: Survival time of c-kit D816V Ba/F3 cell line xenograft mouse model; format: in vivo; settings: oral, daily
Protocol: As mice, 6-8-week-old NOD SCID female mice (18 to 22 g) (GemPharmatech Co., Ltd.) were prepared. Mice were acclimatized for 7 days before use in the experiment, and mice with abnormal health were excluded from the experiment. Mice were bred in a cage (300×180×150 mm) at a 22±3° C. and a relative humidity of 40% to 70% with a 12-hr light/12-hr dark cycle. Mice were allowed access to sterilized dry granular food (Beijing Keaoxieli Feed Co., Ltd., Beijing, China) and water ad libitum for the entire experimental period except for the period specified in the protocol.
50 ml of c-kit D816V mutant Ba/F3 cells suspension cultured in a 75 T flask were placed in a conical tube and centrifuged at 800 rpm for 2 minutes, centrifuged with DPBS (Dulbecco's Phosphate-Buffered Saline, Welgene) at 800 rpm for 2 minutes, washed, and then suspended in RPMI1640 (Welgene) without antibiotics and fetal bovine serum (FBS). Thereafter, the cells were stained with trypan blue and counted with a hemocytometer. […]
Specifically, while the presence or absence of abnormalities in the mouse model of Example 3-1 was monitored daily by checking the skin condition, bleeding and stool status, whether the body weight changed was checked by measuring the mouse weight at intervals of 3 days after the start of oral administration of each drug. […]

| GI50 [1] [nM] | GI50 [2] [nM] | Compound | GI50 [3] [nM] | inhibitory activity against the c-kit D816V Ba/F3 mutant cell line compared with control compounds ([2]; controls imatinib and sunitinib) | selectivity for c-kit D816V Ba/F3 mutant cell line versus parental Ba/F3 cell line ([2]; from GI50 values of Table 1) | inhibitory activity against p-c-kit (Y719) phosphorylation [4] | induction of apoptosis ([5]; 0.1 μM) | apoptosis, concentration dependence ([5]; 0.1, 1 and 10 μM) | SubG1/GO-1 population [6] | IC50 ([1]; GIST-T1 proliferation, read-out: IC50 value in GIST-T1 cells) [nM] | c-kit phosphorylation and downstream signaling [7] | level of cleaved PARP (apoptosis marker) [8] | prolongation of survival time compared to vehicle-administered group ([9]; 7 mg/kg) [days] | survival time compared to vehicle-administered group ([9]; 80 mg/kg) |
| --- | --- | --- | --- | --- | --- | --- | --- | --- | --- | --- | --- | --- | --- | --- |
| 73 |  | Cc1nc(Nc2ncc(C(=O)Nc3c(C)cccc3Cl)s2)cc(N2CCN(CCO)CC2)n1 [Dasatinib, dasatinib] |  |  |  |  |  |  |  |  |  |  |  |  |
| 64 | 11500 | Cc1ccc(NC(=O)c2ccc(CN3CCN(C)CC3)cc2)cc1Nc1nccc(-c2cccnc2)n1 [Imatinib, imatinib] | 12700 |  |  |  |  |  |  |  |  |  |  |  |
| 26 | 2650 | CCN(CC)CCNC(=O)c1c(C)[nH]c(/C=C2\C(=O)Nc3ccc(F)cc32)c1C [Sunitinib, sunitinib] | 13300 |  |  |  |  |  |  |  |  |  |  |  |

| Compound | GI50 [1] [nM] | GI50 [2] [nM] | GI50 [3] [nM] | inhibitory activity against the c-kit D816V Ba/F3 mutant cell line compared with control compounds ([2]; controls imatinib and sunitinib) | selectivity for c-kit D816V Ba/F3 mutant cell line versus parental Ba/F3 cell line ([2]; from GI50 values of Table 1) | inhibitory activity against p-c-kit (Y719) phosphorylation [4] | induction of apoptosis ([5]; 0.1 μM) | apoptosis, concentration dependence ([5]; 0.1, 1 and 10 μM) | SubG1/GO-1 population [6] | IC50 ([1]; GIST-T1 proliferation, read-out: IC50 value in GIST-T1 cells) [nM] | c-kit phosphorylation and downstream signaling [7] | level of cleaved PARP (apoptosis marker) [8] | prolongation of survival time compared to vehicle-administered group ([9]; 7 mg/kg) [days] | survival time compared to vehicle-administered group ([9]; 80 mg/kg) |
| --- | --- | --- | --- | --- | --- | --- | --- | --- | --- | --- | --- | --- | --- | --- |
| NC(=O)Nc1cc(C#Cc2cccc(F)c2)sc1C(=O)N[C@H]1CCCNC1 [PHI-101, (S)-5-((3-fluorophenyl)ethynyl)-N-(piperidin-3-yl)-3-ureidothiophene-2-carboxamide] | 36 | 912 | 5010 | higher inhibitory activity against the c-kit D816V Ba/F3 mutant cell line than the control compounds | higher selectivity for the c-kit D816V Ba/F3 mutant cell line than for the parental Ba/F3 cell line | higher inhibitory activity against p-c-kit (Y719) phosphorylation than the control compounds | strongly induced apoptosis | apoptosis increased in a concentration-dependent manner | increased | 36 | decreased c-kit phosphorylation and downstream signaling in a concentration-dependent manner | increased in a manner dependent on the concentration of PHI-101 | 3 | doubled |
